# Data from PMC11194663, “Synthesis and biological research of new imidazolone-sulphonamide-pyrimidine hybrids as potential EGFR-TK inhibitors and apoptosis-inducing agents” (RSC Advances, 2024).
# Columns and labels:
# [1] = system: breast MCF-7 cancerous cell line; experiment: MTT cytotoxicity assay; conditions: Homo sapiens, MCF7, 24 h, read-out: IC50 (μM) MCF-7
# EGFR-TK = molecular target: T1, EGFR-TK (Homo sapiens, UniProt P00533); experiment: EGFR kinase inhibitory assay (BPS Bioscience EGFR Kinase Assay Kit); type: biochemical; conditions: mean of three replicates; read-out: IC50 on EGFR enzyme
# T1 construct: purchased BPS Bioscience 40321
# T1 sequence (P00533 25-1210): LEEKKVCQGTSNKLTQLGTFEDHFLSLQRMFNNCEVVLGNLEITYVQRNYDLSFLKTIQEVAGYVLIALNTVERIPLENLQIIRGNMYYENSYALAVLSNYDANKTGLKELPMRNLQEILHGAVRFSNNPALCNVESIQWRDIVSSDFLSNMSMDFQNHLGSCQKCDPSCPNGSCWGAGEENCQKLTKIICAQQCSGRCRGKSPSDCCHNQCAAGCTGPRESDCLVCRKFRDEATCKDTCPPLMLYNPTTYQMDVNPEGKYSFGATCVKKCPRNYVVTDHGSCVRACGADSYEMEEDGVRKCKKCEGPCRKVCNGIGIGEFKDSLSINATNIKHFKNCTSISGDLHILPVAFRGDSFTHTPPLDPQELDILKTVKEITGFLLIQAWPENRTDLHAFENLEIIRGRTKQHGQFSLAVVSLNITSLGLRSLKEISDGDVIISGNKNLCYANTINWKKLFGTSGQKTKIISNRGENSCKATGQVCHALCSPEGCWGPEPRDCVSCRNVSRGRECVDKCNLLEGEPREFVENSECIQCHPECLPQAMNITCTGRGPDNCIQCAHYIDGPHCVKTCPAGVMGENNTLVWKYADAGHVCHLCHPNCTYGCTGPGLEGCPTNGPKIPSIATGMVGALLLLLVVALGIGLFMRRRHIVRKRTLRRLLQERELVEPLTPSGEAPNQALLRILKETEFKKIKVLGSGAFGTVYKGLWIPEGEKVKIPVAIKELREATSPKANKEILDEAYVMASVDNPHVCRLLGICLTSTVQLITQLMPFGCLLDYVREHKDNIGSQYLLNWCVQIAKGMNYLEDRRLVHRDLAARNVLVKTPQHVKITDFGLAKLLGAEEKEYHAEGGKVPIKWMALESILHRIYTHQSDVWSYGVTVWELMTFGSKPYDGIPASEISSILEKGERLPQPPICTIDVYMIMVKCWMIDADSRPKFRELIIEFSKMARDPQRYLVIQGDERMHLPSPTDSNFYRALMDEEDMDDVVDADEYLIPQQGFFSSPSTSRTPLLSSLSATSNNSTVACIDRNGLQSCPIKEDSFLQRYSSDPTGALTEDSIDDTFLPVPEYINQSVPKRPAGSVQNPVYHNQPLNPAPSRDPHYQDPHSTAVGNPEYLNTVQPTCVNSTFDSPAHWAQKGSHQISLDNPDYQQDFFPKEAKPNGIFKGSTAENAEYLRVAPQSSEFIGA
# Procedure: S4.2.1. Cytotoxic activity evaluation […]
# adenocarcinoma (MCF-7) cell line. Cell viability assay was assessed using MTT assay […]
# under 5% CO2. After incubation, the cells were treated with different concentrations of the test imidazolone hybrids 5a-l and 6a,b and incubated for 24 h, then 20 µl of MTT […]
# (DMSO) in volume of 100 µl was added to each well to dissolve the purple formazan that had formed. The color intensity of the formazan product, which represents the […]
# USA) at 570 nm absorbance. The experimental conditions were carried out with at least three replicates, and the experiments were repeated at least three times.
# S4.2.2. EGFR kinase Assay […]
# activity according to manufacturer’s instructions using # BPS Bioscience EGFR
# Bax = experiment: qRT-PCR expression of pro-apoptotic Bax in MCF-7 cells; type: cell-based; conditions: IC50 concentration, 48 h, MCF-7, increase
# Source text: (§1) The Bcl-2 family members are essential in determining whether a cell will survive or perish since they reside upstream of the irreversible cellular damage.[40] Two groups of the Bcl-2 family proteins are distinguished by pro-survival (e.g. Bcl-2) or pro-apoptotic (Bax) activity.[41] The pro-apoptotic factors promote cellular death. When Bcl-2-associated x-protein (Bax) homodimerizes it enhances apoptosis. The anti-apoptotic effect of Bcl-2 may be due to its ability to inhibit Bax homodimerization.[42,43] […] It is noteworthy, that the level of pro-survival Bcl-2 protein declined by 0.28-fold compared to the control untreated cells. […] These findings support that 4-(furan-2-ylmethylene)imidazolone-sulphonamide-pyrimidine hybrid 6b induces apoptosis by regulating the expression of Bcl-2 family proteins.
# (§2) Fig. 5 Roles of Bcl-2 family protein in apoptosis induced by 4-(furan-2-ylmethylene)imidazolone-sulphonamide-pyrimidine hybrid 6b. (A) Pro-survival Bcl-2 protein; (B) pro-apoptotic Bax protein. Cells underwent treatment with an IC50 concentration of imidazolone hybrids 6b for 48 h and the expression of apoptosis-related proteins was examined by qRT-PCR assay.
# Bcl-2 = experiment: qRT-PCR expression of pro-survival Bcl-2 in MCF-7 cells; type: cell-based; conditions: IC50 concentration, 48 h, MCF-7, decline
# Source text: as §1, §2
# MCF-7 cells [2] = experiment: Annexin V-FITC/PI apoptosis assay by flow cytometry; type: cell-based; conditions: IC50 concentration, 48 h
# Source text: Apoptosis, a form of programmed cellular death, is a widespread phenomenon, occurring in processes such as morphogenesis, growth and development as well as normal turnover in adult tissue.[35] Most cells are programmed to die if survival signals are not received regularly from their environment.[36] It can be initiated by endogenous tissue-specific agents such as cytokines or exogenous cell-damaging agents such as chemicals.[37] It is evidenced from the literature that exposure to EGFR-TK inhibitors leads to cellular apoptosis.[38] Thus, the effect of examined 4-(furan-2-ylmethylene)imidazolone-sulphonamide-pyrimidine hybrid 6b on the apoptosis of the MCF-7 cells was assessed utilizing Annexin V-FITC/PI double labeling followed by flow cytometry (Fig. 4). […] 4-(furan-2-ylmethylene)imidazolone-sulphonamide-pyrimidine hybrid 6b induced 46.1% apoptosis in the MCF-7 cancer cells. Thus, it is evident that this compound had substantial apoptosis-inducing action against the MCF-7 breast cancerous cell line.
# Apoptosis in MCF-7 cells was investigated using fluorescent Annexin V-FITC/ PI detection kit (BioVision Annexin V-FITC Apoptosis Detection Kit, Catalog #: K101) by flow cytometry assay. MCF-7 cells at a density of 2 × 10^5 per well were treated with compound 6b at the IC50 (µM) for 48 h, then the cells were harvested and stained with Annexin V-FITC/ PI dye for 15 min in the dark at 37 °C. The samples were immediately analyzed using FACS Calibur flow cytometer (Becton and Dickinson, […]
# MCF-7 cells [3] = experiment: Cell cycle analysis by flow cytometry (PI); type: cell-based; conditions: 1.05 μM (IC50), 48 h
# Procedure: The impact of the best potent hybrid molecule on the cellular cycle distribution was further evaluated on the MCF-7 cell line.
# S4.2.3. Cell cycle analysis of compound 6b
# Cell cycle analysis in MCF-7 cells was investigated using fluorescent Annexin V-FITC/ PI detection kit (BioVision EZCellTM Cell Cycle Analysis Kit Catalog #K920) by flow cytometry assay. MCF-7 cells at a density of 2 × 10^5 per well were harvested and washed twice in PBS. After that, the cells were incubated at 37 °C and 5% CO2. The medium was incubated with the tested compound 6b at the IC50 (µM) for 48 h, washed twice in PBS, fixed with 70% ethanol, rinsed again with PBS. Afterward, medium was stained with DNA fluorochrome PI for 15 min at 37 °C. The samples were immediately analyzed using Facs Calibur flow cytometer (Becton and Dickinson, Heidelberg, […]
# S4.2.4. Apoptosis assay for compound 6b
# (1 picture or pasted object on this page, not shown here)
melting point,Structure (SMILES),IC50 [1],also measured
290 to 292 °C,"O=C1/C(=C/c2ccc(Br)cc2)N=C(c2ccccc2)N1c1ccc(S(=O)(=O)Nc2ncccn2)cc1 [5a, (Z)-4-(4-(4-bromobenzylidene)-5-oxo-2-phenyl-4,5-dihydro-1H-imidazole-1-yl)-N-(pyrimidin-2-yl)benzenesulfonamide]",14.1 ± 0.68 µM,
188 to 190 °C,"O=C1/C(=C/c2ccccc2O)N=C(c2ccccc2)N1c1ccc(S(=O)(=O)Nc2ncccn2)cc1 [5b, (Z)-4-(4-(2-hydroxybenzylidene)-5-oxo-2-phenyl-4,5-dihydro-1H-imidazole-1-yl)-N-(pyrimidin-2-yl)benzenesulfonamide]",31.4 ± 1.64 µM,
277 to 279 °C,"Cc1ccc(/C=C2\N=C(c3ccccc3)N(c3ccc(S(=O)(=O)Nc4ncccn4)cc3)C2=O)cc1 [5c, (Z)-4-(4-(4-methylbenzylidene)-5-oxo-2-phenyl-4,5-dihydro-1H-imidazole-1-yl)-N-(pyrimidin-2-yl)benzenesulfonamide]",43.9 ± 2.24 µM,
243 to 245 °C,"CC(=O)Oc1c(Br)cc(/C=C2\N=C(c3ccccc3)N(c3ccc(S(=O)(=O)Nc4ncccn4)cc3)C2=O)cc1Br [5d, (Z)-2,6-dibromo-4-((5-oxo-2-phenyl-1-(4-(N-pyrimidin-2-ylsulfamoyl)phenyl)-1H-imidazole-4(5H)-ylidene)methyl)phenyl acetate]",29.4 ± 1.64 µM,
> 300 °C,"COc1ccc(C2=N/C(=C\c3ccc([N+](=O)[O-])cc3)C(=O)N2c2ccc(S(=O)(=O)Nc3ncccn3)cc2)cc1 [5j, (Z)-4-(2-(4-methoxyphenyl)-4-(4-nitrobenzylidene)-5-oxo-4,5-dihydro-1H-imidazole-1-yl)-N-(pyrimidin-2-yl)benzenesulfonamide]",3.14 ± 0.16 µM,IC50 (EGFR-TK): 0.21 µM
239 to 241 °C,"COc1ccc(C2=N/C(=C\c3cc(Br)c(OC(C)=O)c(Br)c3)C(=O)N2c2ccc(S(=O)(=O)Nc3ncccn3)cc2)cc1 [5k, (Z)-2,6-dibromo-4-((2-(4-methoxyphenyl)-5-oxo-1-(4-(N-pyrimidin-2-ylsulfamoyl)phenyl)-1H-imidazole-4(5H)-ylidene)methyl)phenyl acetate]",14.5 ± 0.65 µM,
247 to 249 °C,"COc1ccc(C2=N/C(=C\c3cc(OC)c(OC)c(OC)c3)C(=O)N2c2ccc(S(=O)(=O)Nc3ncccn3)cc2)cc1 [5l, (Z)-4-(2-(4-methoxyphenyl)-5-oxo-4-(3,4,5-trimethoxybenzylidene)-4,5-dihydro-1H-imidazole-1-yl)-N-(pyrimidin-2-yl)benzenesulfonamide]",25.8 ± 1.24 µM,
291 to 293 °C,"O=C1/C(=C/c2ccco2)N=C(c2ccccc2)N1c1ccc(S(=O)(=O)Nc2ncccn2)cc1 [6a, (Z)-4-(4-(furan-2-ylmethylene)-5-oxo-2-phenyl-4,5-dihydro-1H-imidazole-1-yl)-N-(pyrimidin-2-yl)benzenesulfonamide]",5.09 ± 0.31 µM,

# The next lines start with the molecule.
Structure (SMILES),melting point,IC50 [1],also measured
"COc1ccc(/C=C2\N=C(c3ccccc3)N(c3ccc(S(=O)(=O)Nc4ncccn4)cc3)C2=O)c(OC)c1OC [5e, (Z)-4-(5-oxo-2-phenyl-4-(2,3,4-trimethoxybenzylidene)-4,5-dihydro-1H-imidazole-1-yl)-N-(pyrimidin-2-yl)benzenesulfonamide]",210 to 212 °C,37.2 ± 1.98 µM,
"COc1ccc(C2=N/C(=C\c3ccccc3)C(=O)N2c2ccc(S(=O)(=O)Nc3ncccn3)cc2)cc1 [5f, (Z)-4-(4-benzylidene-2-(4-methoxyphenyl)-5-oxo-4,5-dihydro-1H-imidazole-1-yl)-N-(pyrimidin-2-yl)benzenesulfonamide]",258 to 260 °C,85.2 ± 4.72 µM,
"COc1ccc(C2=N/C(=C\c3ccc(F)cc3)C(=O)N2c2ccc(S(=O)(=O)Nc3ncccn3)cc2)cc1 [5g, (Z)-4-(4-(4-fluorobenzylidene)-2-(4-methoxyphenyl)-5-oxo-4,5-dihydro-1H-imidazole-1-yl)-N-(pyrimidin-2-yl)benzenesulfonamide]",257 to 259 °C,4.57 ± 0.09 µM,
"COc1ccc(C2=N/C(=C\c3ccc(Cl)cc3)C(=O)N2c2ccc(S(=O)(=O)Nc3ncccn3)cc2)cc1 [5h, (Z)-4-(4-(4-chlorobenzylidene)-2-(4-methoxyphenyl)-5-oxo-4,5-dihydro-1H-imidazole-1-yl)-N-(pyrimidin-2-yl)benzenesulfonamide]",262 to 264 °C,3.71 ± 0.2 µM,IC50 (EGFR-TK): 0.16 µM
"COc1ccc(C2=N/C(=C\c3ccc(Br)cc3)C(=O)N2c2ccc(S(=O)(=O)Nc3ncccn3)cc2)cc1 [5i, (Z)-4-(4-(4-bromobenzylidene)-2-(4-methoxyphenyl)-5-oxo-4,5-dihydro-1H-imidazole-1-yl)-N-(pyrimidin-2-yl)benzenesulfonamide]",284 to 286 °C,9.98 ± 0.61 µM,
"COc1ccc(C2=N/C(=C\c3ccco3)C(=O)N2c2ccc(S(=O)(=O)Nc3ncccn3)cc2)cc1 [6b, (Z)-4-(4-(furan-2-ylmethylene)-2-(4-methoxyphenyl)-5-oxo-4,5-dihydro-1H-imidazole-1-yl)-N-(pyrimidin-2-yl)benzenesulfonamide]",,1.05 ± 0.04 µM,Bax expression level relative to untreated control (Bax): 4.54 fold; Bcl-2 expression level relative to untreated control (Bcl-2): 0.28 fold; IC50 (EGFR-TK): 0.09 µM; apoptosis induced in MCF-7 cells (total) (MCF-7 cells [2]): 46.1%; apoptotic cells in the late stage (upper right quadrant) (MCF-7 cells [2]; control 0.2%): 23.4%; apoptotic cells in the early stage (lower right quadrant) (MCF-7 cells [2]; control 0.6%): 22.7%; MCF-7 cells in G2/M phase (MCF-7 cells [3]; control 13.7%): 10.8%; MCF-7 cells in S phase (MCF-7 cells [3]; control 35.1%): 24.3%; MCF-7 cells in G1 phase (MCF-7 cells [3]; control 51.2%): 64.9%
"COc1cccc2c1C(=O)c1c(O)c3c(c(O)c1C2=O)C[C@@](O)(C(=O)CO)C[C@@H]3O[C@H]1C[C@H](N)[C@H](O)[C@H](C)O1 [Dox, doxorubicin, reference compound]",,1.91 ± 0.07 µM,
